{"source": "patent US20130005568A1", "about": "“SAFENED HERBICIDAL MIXTURES” (E.I. DU PONT DE NEMOURS AND COMPANY, priority 2011, published 2013)", "key": {"[1]": {"test_system": "Pioneer 39K40 hybrid maize", "assay": "Test C: visual plant response rating, postemergence acetohydroxy acid synthase-inhibiting herbicides alone and with Compound 1", "format": "in vivo, Zea mays L. spp. indentata Sturt.", "conditions": "greenhouse, two weeks, 0-100 scale", "description": "(§1) For all of the following biological tests, plant response ratings were based on a 0-100 scale where zero is growth equivalent to that of untreated plants (no plant response) and 100 represents no additional growth occurring after herbicide treatment.\nHerbicide mixtures were dissolved/dispersed in a non-phytotoxic liquid carrier and were sprayed postemergence to Pioneer 39K40 hybrid maize (Zea mays L. spp. indentata Sturt.) in the third collar growth stage (extended leaf height was 40-60 cm). Treated plants were grown under greenhouse conditions for two weeks before visual evaluations of plant responses were recorded."}, "blackgrass [2]": {"test_system": "blackgrass", "assay": "Test E: postemergence plant response rating", "format": "in vivo, Alopecurus myosuroides Huds.", "conditions": "blackgrass, postemergence, greenhouse, two weeks, 0-100 scale", "text": "as §1\n(§2) Herbicide mixtures were formulated, dissolved/dispersed in water containing 0.25% non-ionic surfactant, sprayed postemergence to the crops: winter wheat (Triticum aestivum L.), spring wheat (Triticum aestivum L.), winter barley (Hordeum vulgare L.) and spring barley (Hordeum vulgare L.), and the weeds: blackgrass (Alopecurus myosuroides Huds.), lambsquarters (Chenopodium album L.) and pigweed (Amaranthus retroflexus L.). Treated plants were grown under greenhouse conditions for two weeks before visual evaluations of plant responses were recorded."}, "winter barley [3]": {"test_system": "winter barley", "assay": "Test F: preemergence plant response rating", "format": "in vivo, Hordeum vulgare L.", "conditions": "winter barley, preemergence, greenhouse, three weeks, 0-100 scale", "text": "as §1\n(§3) Herbicide mixtures were formulated, dissolved/dispersed in water, and sprayed preemergence to the crops: winter wheat (Triticum aestivum L.) and winter barley (Hordeum vulgare L.), and the weed: blackgrass (Alopecurus myosuroides Huds). Treated plants were grown under greenhouse conditions for three weeks before visual evaluations of plant responses were recorded."}, "lambsquarters": {"test_system": "lambsquarters", "assay": "Test E: postemergence plant response rating", "format": "in vivo, Chenopodium album L.", "conditions": "lambsquarters, postemergence, greenhouse, two weeks, 0-100 scale", "text": "as §1, §2"}, "spring barley": {"test_system": "spring barley", "assay": "Test E: postemergence plant response rating", "format": "in vivo, Hordeum vulgare L.", "conditions": "spring barley, postemergence, greenhouse, two weeks, 0-100 scale", "text": "as §1, §2"}, "winter barley [4]": {"test_system": "winter barley", "assay": "Test E: postemergence plant response rating", "format": "in vivo, Hordeum vulgare L.", "conditions": "winter barley, postemergence, greenhouse, two weeks, 0-100 scale", "text": "as §1, §2"}, "winter wheat [5]": {"test_system": "winter wheat", "assay": "Test F: preemergence plant response rating", "format": "in vivo, Triticum aestivum L.", "conditions": "winter wheat, preemergence, greenhouse, three weeks, 0-100 scale", "text": "as §1, §3"}, "winter wheat [6]": {"test_system": "winter wheat", "assay": "Test E: postemergence plant response rating", "format": "in vivo, Triticum aestivum L.", "conditions": "winter wheat, postemergence, greenhouse, two weeks, 0-100 scale", "text": "as §1, §2"}, "spring wheat": {"test_system": "spring wheat", "assay": "Test E: postemergence plant response rating", "format": "in vivo, Triticum aestivum L.", "conditions": "spring wheat, postemergence, greenhouse, two weeks, 0-100 scale", "text": "as §1, §2"}, "blackgrass [7]": {"test_system": "blackgrass", "assay": "Test F: preemergence plant response rating", "format": "in vivo, Alopecurus myosuroides Huds", "conditions": "blackgrass, preemergence, greenhouse, three weeks, 0-100 scale", "text": "as §1, §3"}, "pigweed": {"test_system": "pigweed", "assay": "Test E: postemergence plant response rating", "format": "in vivo, Amaranthus retroflexus L.", "conditions": "pigweed, postemergence, greenhouse, two weeks, 0-100 scale", "text": "as §1, §2"}, "[8]": {"conditions": "herbicide 10 g ai/ha + Compound 1 125 g ai/ha"}, "[9]": {"conditions": "herbicide 20 g ai/ha + Compound 1 125 g ai/ha"}, "[10]": {"conditions": "herbicide 32 g ai/ha + Compound 1 125 g ai/ha"}, "[11]": {"conditions": "herbicide 64 g ai/ha + Compound 1 125 g ai/ha"}, "[12]": {"conditions": "herbicide 17.5 g ai/ha + Compound 1 125 g ai/ha"}, "[13]": {"conditions": "herbicide 35 g ai/ha + Compound 1 125 g ai/ha"}}}
{"compound": "CCOC(=O)c1ccccc1S(=O)(=O)NC(=O)Nc1nc(Cl)cc(OC)n1", "note": "[Chlorimuron-ethyl, chlorimuron-ethyl]", "values": [{"measurement": "Observed Response, Herbicide mixture with Compound 1", "setting": "[1]; herbicide 8 g ai/ha + Compound 1 125 g ai/ha", "result": 53}, {"measurement": "Observed Response, Herbicide alone", "setting": "[1]; herbicide 8 g ai/ha", "result": 96}]}
{"compound": "COC(=O)c1ccc(C(F)(F)F)nc1S(=O)(=O)NC(=O)Nc1nc(OC)cc(OC)n1", "note": "[Flupyrsulfuron-methyl-sodium, flupyrsulfuron-methyl-sodium]", "values": [{"measurement": "Observed Response, Herbicide mixture with Compound 1", "setting": "blackgrass [2]; [8]", "result": 99}, {"measurement": "Observed Response, Herbicide alone", "setting": "blackgrass [2]; herbicide 10 g ai/ha", "result": 98}, {"measurement": "Observed Response, Herbicide mixture with Compound 1", "setting": "blackgrass [2]; [9]", "result": 99}, {"measurement": "Observed Response, Herbicide alone", "setting": "blackgrass [2]; herbicide 20 g ai/ha", "result": 99}, {"measurement": "Observed Response, Herbicide mixture with Compound 1", "setting": "winter barley [3]; [10]", "result": 40}, {"measurement": "Observed Response, Herbicide alone", "setting": "winter barley [3]; herbicide 32 g ai/ha", "result": 75}, {"measurement": "Observed Response, Herbicide mixture with Compound 1", "setting": "winter barley [3]; [11]", "result": 35}, {"measurement": "Observed Response, Herbicide alone", "setting": "winter barley [3]; herbicide 64 g ai/ha", "result": 90}, {"measurement": "Observed Response, Herbicide mixture with Compound 1", "setting": "lambsquarters; [8]", "result": 83}, {"measurement": "Observed Response, Herbicide alone", "setting": "lambsquarters; herbicide 10 g ai/ha", "result": 78}, {"measurement": "Observed Response, Herbicide mixture with Compound 1", "setting": "lambsquarters; [9]", "result": 87}, {"measurement": "Observed Response, Herbicide alone", "setting": "lambsquarters; herbicide 20 g ai/ha", "result": 87}, {"measurement": "Observed Response, Herbicide mixture with Compound 1", "setting": "spring barley; [8]", "result": 23}, {"measurement": "Observed Response, Herbicide alone", "setting": "spring barley; herbicide 10 g ai/ha", "result": 47}, {"measurement": "Observed Response, Herbicide mixture with Compound 1", "setting": "spring barley; [9]", "result": 43}, {"measurement": "Observed Response, Herbicide alone", "setting": "spring barley; herbicide 20 g ai/ha", "result": 53}, {"measurement": "Observed Response, Herbicide mixture with Compound 1", "setting": "winter barley [4]; [8]", "result": 12}, {"measurement": "Observed Response, Herbicide alone", "setting": "winter barley [4]; herbicide 10 g ai/ha", "result": 42}, {"measurement": "Observed Response, Herbicide mixture with Compound 1", "setting": "winter barley [4]; [9]", "result": 27}, {"measurement": "Observed Response, Herbicide alone", "setting": "winter barley [4]; herbicide 20 g ai/ha", "result": 42}, {"measurement": "Observed Response, Herbicide mixture with Compound 1", "setting": "winter wheat [5]; [10]", "result": 10}, {"measurement": "Observed Response, Herbicide alone", "setting": "winter wheat [5]; herbicide 32 g ai/ha", "result": 30}, {"measurement": "Observed Response, Herbicide mixture with Compound 1", "setting": "winter wheat [5]; [11]", "result": 33}, {"measurement": "Observed Response, Herbicide alone", "setting": "winter wheat [5]; herbicide 64 g ai/ha", "result": 40}, {"measurement": "Observed Response, Herbicide mixture with Compound 1", "setting": "winter wheat [6]; [8]", "result": 0}, {"measurement": "Observed Response, Herbicide alone", "setting": "winter wheat [6]; herbicide 10 g ai/ha", "result": 17}, {"measurement": "Observed Response, Herbicide mixture with Compound 1", "setting": "winter wheat [6]; [9]", "result": 0}, {"measurement": "Observed Response, Herbicide alone", "setting": "winter wheat [6]; herbicide 20 g ai/ha", "result": 18}, {"measurement": "Observed Response, Herbicide mixture with Compound 1", "setting": "spring wheat; [8]", "result": 3}, {"measurement": "Observed Response, Herbicide alone", "setting": "spring wheat; herbicide 10 g ai/ha", "result": 18}, {"measurement": "Observed Response, Herbicide mixture with Compound 1", "setting": "spring wheat; [9]", "result": 0}, {"measurement": "Observed Response, Herbicide alone", "setting": "spring wheat; herbicide 20 g ai/ha", "result": 22}, {"measurement": "Observed Response, Herbicide mixture with Compound 1", "setting": "blackgrass [7]; [10]", "result": 90}, {"measurement": "Observed Response, Herbicide alone", "setting": "blackgrass [7]; herbicide 32 g ai/ha", "result": 95}, {"measurement": "Observed Response, Herbicide mixture with Compound 1", "setting": "blackgrass [7]; [11]", "result": 97}, {"measurement": "Observed Response, Herbicide alone", "setting": "blackgrass [7]; herbicide 64 g ai/ha", "result": 95}, {"measurement": "Observed Response, Herbicide mixture with Compound 1", "setting": "pigweed; [8]", "result": 96}, {"measurement": "Observed Response, Herbicide alone", "setting": "pigweed; herbicide 10 g ai/ha", "result": 100}, {"measurement": "Observed Response, Herbicide mixture with Compound 1", "setting": "pigweed; [9]", "result": 97}, {"measurement": "Observed Response, Herbicide alone", "setting": "pigweed; herbicide 20 g ai/ha", "result": 99}]}
{"compound": "COC(=O)c1c(Cl)nn(C)c1S(=O)(=O)NC(=O)Nc1nc(OC)cc(OC)n1", "note": "[Halosulfuron-methyl, halosulfuron-methyl]", "values": [{"measurement": "Observed Response, Herbicide mixture with Compound 1", "setting": "[1]; [12]", "result": 10}, {"measurement": "Observed Response, Herbicide alone", "setting": "[1]; herbicide 17.5 g ai/ha", "result": 37}]}
{"compound": "CC(C)C1(C)N=C(c2nc3ccccc3cc2C(=O)O)NC1=O", "note": "(centres unmarked) [Imazaquin, imazaquin]", "values": [{"measurement": "Observed Response, Herbicide mixture with Compound 1", "setting": "[1]; [12]", "result": 100}, {"measurement": "Observed Response, Herbicide alone", "setting": "[1]; herbicide 17.5 g ai/ha", "result": 100}]}
{"compound": "COC(=O)c1ccc(I)cc1S(=O)(=O)NC(=O)Nc1nc(C)nc(OC)n1", "note": "[Iodosulfuron-methyl, iodosulfuron-methyl]", "values": [{"measurement": "Observed Response, Herbicide mixture with Compound 1", "setting": "[1]; [12]", "result": 57}, {"measurement": "Observed Response, Herbicide alone", "setting": "[1]; herbicide 17.5 g ai/ha", "result": 100}]}
{"compound": "COC(=O)c1ccc(CNS(C)(=O)=O)cc1S(=O)(=O)NC(=O)Nc1nc(OC)cc(OC)n1", "note": "[Mesosulfuron-methyl, mesosulfuron-methyl]", "values": [{"measurement": "Observed Response, Herbicide mixture with Compound 1", "setting": "[1]; [12]", "result": 100}, {"measurement": "Observed Response, Herbicide alone", "setting": "[1]; herbicide 17.5 g ai/ha", "result": 100}]}
{"compound": "CCCOc1nn(C(=O)[N-]S(=O)(=O)c2ccccc2C(=O)OC)c(=O)n1C.[Na+]", "note": "[Propoxycarbazone-sodium, propoxycarbazone]", "values": [{"measurement": "Observed Response, Herbicide mixture with Compound 1", "setting": "[1]; [13]", "result": 100}, {"measurement": "Observed Response, Herbicide alone", "setting": "[1]; herbicide 35 g ai/ha", "result": 100}]}
{"compound": "COC(=O)c1cccc(C)c1S(=O)(=O)NC(=O)Nc1nc(OCC(F)(F)F)nc(N(C)C)n1", "note": "[Triflusulfuron-methyl, triflusulfuron-methyl]", "values": [{"measurement": "Observed Response, Herbicide mixture with Compound 1", "setting": "[1]; [13]", "result": 100}, {"measurement": "Observed Response, Herbicide alone", "setting": "[1]; herbicide 35 g ai/ha", "result": 100}]}
{"compound": "Imazamethabenz", "values": [{"measurement": "Observed Response, Herbicide mixture with Compound 1", "setting": "[1]; [12]", "result": 100}, {"measurement": "Observed Response, Herbicide alone", "setting": "[1]; herbicide 17.5 g ai/ha", "result": 100}]}
